Data as given in patent publication US20230340011A1 (Asteroid Therapeutics, priority 2022, published 2023).

What was measured:
SREBP-2 [1] = biological target: T1, SREBP-2 (Homo sapiens (Human), UniProt Q12772); experiment: SREBP-2 IC50 (category A-D, Tables 1 and 3); assay type: cell-based; conditions: Table 3, trans-AB examples
LXRβ [2] = biological target: T2, LXRβ (Homo sapiens (Human), UniProt P55055); experiment: LXRβ PPI (category A-D, Tables 1 and 3); assay type: biochemical; conditions: Table 3, trans-AB examples
SREBP-2 [3] = biological target: T1, SREBP-2; experiment: In vitro assay SREBP-2: PathHunter U2OS SREBP-2 Nuclear Translocation Cell Line, U18666A-stimulated; assay type: cell-based; conditions: PathHunter U2OS SREBP-2 nuclear translocation cells, U18666A 10 μM, overnight (16 hours)
LXRβ [4] = biological target: T2, LXRβ; experiment: In vitro assay LXRβ: PathHunter NHR CHO cells, LXRβ / Steroid Receptor Co-activator Peptide enzyme fragment complementation; assay type: cell-based; conditions: PathHunter NHR CHO cells, full-length human LXRβ and SRCP, chemiluminescent signal; read-out: LXRβ PPI
Procedure, shortened: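 Enzyme fragment complementation read-out: CHO cells stably expressing ProLink-tagged full-length human LXRβ plus nuclear enzyme acceptor–SRCP fusion, seeded and held overnight at 37° C. Medium with charcoal-dextran filtered serum; final vehicle 1%. Chemiluminescence measured after signal generation.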

T2 sequence (P55055 whole entry): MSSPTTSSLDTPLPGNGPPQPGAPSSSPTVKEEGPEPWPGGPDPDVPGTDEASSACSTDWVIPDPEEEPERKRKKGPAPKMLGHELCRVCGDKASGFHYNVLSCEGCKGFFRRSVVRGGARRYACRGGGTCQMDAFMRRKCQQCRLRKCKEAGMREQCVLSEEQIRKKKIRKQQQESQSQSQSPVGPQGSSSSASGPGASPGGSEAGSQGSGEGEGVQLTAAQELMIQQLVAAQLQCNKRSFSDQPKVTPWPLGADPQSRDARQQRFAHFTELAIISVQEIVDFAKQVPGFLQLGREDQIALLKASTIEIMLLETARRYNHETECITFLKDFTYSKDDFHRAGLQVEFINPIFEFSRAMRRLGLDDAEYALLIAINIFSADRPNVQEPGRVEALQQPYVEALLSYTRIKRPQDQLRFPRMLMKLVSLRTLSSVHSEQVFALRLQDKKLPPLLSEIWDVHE

What does the source list for C[C@H](CCC(=O)N1CC[C@@H](CO)O1)[C@H]1CC[C@H]2[C@@H]3CC=C4C[C@@H](O)CC[C@]4(C)[C@H]3CC[C@]12C [Example 42, (R)-4-((3S,8S,9S,10R,13R,14S,17R)-3-hydroxy-10,13-dimethyl-2,3,4,7,8,9,10,11,12,13,14,15,16,17-tetradecahydro-1H-cyclopenta[a]-phenanthren-17-yl)-1-((S)-5-(hydroxymethyl)isoxazolidin-2-yl) pentan-1-one]?
IC50 (SREBP-2 [1]): < 250 nM; LXRβ PPI (LXRβ [2]): D (>10000 nM); IC50 (SREBP-2 [3]): 250 to 1000 nM

Which results are given for CCON(C)C(=O)CC[C@@H](C)[C@H]1CC[C@H]2[C@@H]3CC=C4C[C@@H](O)CC[C@]4(C)[C@H]3CC[C@]12C [Example 10, (R)—N-ethoxy-4-((3S,8S,9S,10R,13R,14S,17R)-3-hydroxy-10,13-dimethyl-2,3,4,7,8,9,10,11,12,13,14,15,16,17-tetradecahydro-1H-cyclopenta[a]phenanthren-17-yl)-N-methylpentanamide]?
IC50 (SREBP-2 [1]): < 250 nM; LXRβ PPI (LXRβ [2]): B (250 nM-1000 nM); IC50 (SREBP-2 [3]): < 250 nM

For CCC1(O)CCN(C(=O)CC[C@@H](C)[C@H]2CC[C@H]3[C@@H]4CC[C@H]5C[C@@H](O)CC[C@]5(C)[C@H]4[C@@H](O)C[C@]23C)CC1 [Example T7, (R)-4-((3S,5S,8S,9S,10S,11S,13R,14S,17R)-3,11-dihydroxy-10,13-dimethylhexadecahydro-1H-cyclopenta[a]phenanthren-17-yl)-1-(4-ethyl-4-hydroxypiperidin-1-yl)pentan-1-one], which IC50 (SREBP-2 [1]) is on record?
Its IC50 is 250 to 1000 nM.

How did the IC50 (SREBP-2 [1]) turn out when CCCCON(C)C(=O)CC[C@@H](C)[C@H]1CC[C@H]2[C@@H]3CC=C4C[C@@H](O)CC[C@]4(C)[C@H]3CC[C@]12C [Example 16] was run?
The IC50 was under 250 nM.

And the EC50 (LXRβ [4])?
The EC50 was 1000 to 10000 nM.

What about the “LXRβ PPI” value (LXRβ [2]) of the same compound?
Its value is “B (250 nM-1000 nM)”.

C[C@H](CC[C@@](O)(C1CC1)C(F)(F)F)[C@H]1CC[C@H]2[C@@H]3CC=C4C[C@@H](O)CC[C@]4(C)[C@H]3CC[C@]12C [Example 24, (3S,8S,9S,10R,13R,14S,17R)-17-((2R,5R)-5-cyclopropyl-6,6,6-trifluoro-5-hydroxyhexan-2-yl)-10,13-dimethyl-2,3,4,7,8,9,10,11,12,13,14,15,16,17-tetradecahydro-1H-cyclopenta(a)phenanthren-3-ol] was tested. Which IC50 (SREBP-2 [1]) did it give?
The IC50 was 250 to 1000 nM.

What about the IC50 (SREBP-2 [3]) of the same compound?
The IC50 was 250 to 1000 nM.

How did the IC50 (SREBP-2 [1]) turn out when C[C@H](CC[C@@](O)(C1CCC1)C(F)(F)F)[C@H]1CC[C@H]2[C@@H]3CC=C4C[C@@H](O)CC[C@]4(C)[C@H]3CC[C@]12C [Example 26, (3S,8S,9S,10R,13R,14S,17R)-17-((2R,5R)-5-cyclobutyl-6,6,6-trifluoro-5-hydroxyhexan-2-yl)-10,13-dimethyl-2,3,4,7,8,9,10,11,12,13,14,15,16,17-tetradecahydro-1H-cyclopenta[a]phenanthren-3-ol] was run?
The IC50 was 250 to 1000 nM.

What about the “LXRβ PPI” value (LXRβ [2]) of the same compound?
Its value is “B (250 nM-1000 nM)”.

And the IC50 (SREBP-2 [3])?
Its IC50 is 250 to 1000 nM.

How did the IC50 (SREBP-2 [1]) turn out when C=C[C@](O)(CC[C@@H](C)[C@H]1CC[C@H]2[C@@H]3CC=C4C[C@@H](O)CC[C@]4(C)[C@H]3CC[C@]12C)C(F)(F)F [Example 20, (3S,8S,9S,10R,13R,14S,17R)-17-((2R,5R)-5-hydroxy-5-(trifluoromethyl)hept-6-en-2-yl)-10,13-dimethyl-2,3,4,7,8,9,10,11,12,13,14,15,16,17-tetradecahydro-1H-cyclopenta[a]phenanthren-3-ol] was run?
The IC50 was under 250 nM.

What about the EC50 (LXRβ [4]) of the same compound?
Its EC50 is over 10000 nM.

What about the “LXRβ PPI” value (LXRβ [2]) of the same compound?
Its value is “D (>10000 nM)”.

What about the IC50 (SREBP-2 [3]) of the same compound?
The IC50 was under 250 nM.

Which results are given for “(R)-4-((3S,8S,9S,10R,13R,14S,17R)-3-hydroxy-10,13-dimethyl-2,3,4,7,8,9,10,11,12,13,14,15,16,17-tetradecahydro-1H-cyclopenta[a]phenanthren-17-yl)-N-methyl-N-propoxypentanamide [Example 12]”?
IC50 (SREBP-2 [1]): < 250 nM; LXRβ PPI (LXRβ [2]): D (>10000 nM)

What does the source list for C=C[C@@](O)(CC[C@@H](C)[C@H]1CC[C@H]2[C@@H]3CC=C4C[C@@H](O)CC[C@]4(C)[C@H]3CC[C@]12C)C(F)(F)F [Example 19, (3S,8S,9S,10R,13R,14S,17R)-17-((2R,5S)-5-hydroxy-5-(trifluoromethyl)hept-6-en-2-yl)-10,13-dimethy12,3,4,7,8,9,10,11,12,13,14,15,16,17-tetradecahydro-1H-cyclopenta[a]phenanthren-3-ol]?
IC50 (SREBP-2 [1]): < 250 nM; EC50 (LXRβ [4]): 1000 to 10000 nM; LXRβ PPI (LXRβ [2]): D (>10000 nM); IC50 (SREBP-2 [3]): < 250 nM

How did the IC50 (SREBP-2 [1]) turn out when C[C@H](CCC(=O)N(C)C)[C@H]1CC[C@H]2[C@@H]3CC[C@H]4C[C@@H](O)CC[C@]4(C)[C@H]3[C@@H](O)C[C@]12C [Example T5, (R)-4-((3S,5S,8S,9S,10S,11S,13R,14S,17R)-3,11-dihydroxy-10,13-dimethylhexadecahydro-1H-cyclopenta[a]phenanthren-17-yl)-N, N-dimethylpentanamide] was run?
The IC50 was 250 to 1000 nM.

Which IC50 (SREBP-2 [1]) does the source give for CC[C@@](O)(CC[C@@H](C)[C@H]1CC[C@H]2[C@@H]3CC=C4C[C@@H](O)CC[C@]4(C)[C@H]3CC[C@]12C)C(F)(F)F [Example 21, (3S,8S,9S,10R,13R,14S,17R)-17-((2R,5R)-5-hydroxy-5-(trifluoromethyl)heptan-2-yl)-10,13-dimethyl-2,3,4,7,8,9,10,11,12,13,14,15,16,17-tetradecahydro-1H-cyclopenta(a)phenanthren-3-ol] here?
Its IC50 is under 250 nM.

And the “LXRβ PPI” value (LXRβ [2])?
Its value is “C (1000-10000 nM)”.

And the IC50 (SREBP-2 [3])?
Its IC50 is under 250 nM.

With C[C@H](CC[C@](O)(C1CC1)C(F)(F)F)[C@H]1CC[C@H]2[C@@H]3CC=C4C[C@@H](O)CC[C@]4(C)[C@H]3CC[C@]12C [Example 23, (3S,8S,9S,10R,13R,14S,17R)-17-((2R,5s)-5-cyclopropyl-6,6,6-trifluoro-5-hydroxyhexan-2-yl)-10,13-dimethyl-2,3,4,7,8,9,10,11,12,13,14,15,16,17-tetradecahydro-1H-cyclopenta(a)phenanthren-3-ol] as the compound, how does the IC50 (SREBP-2 [1]) read?
The IC50 was under 250 nM.

And the “LXRβ PPI” value (LXRβ [2])?
Its value is “A (<1 nM to 250 nM)”.

And the IC50 (SREBP-2 [3])?
The IC50 was under 250 nM.

Which IC50 (SREBP-2 [1]) does the source give for CC[C@](O)(CC[C@@H](C)[C@H]1CC[C@H]2[C@@H]3CC=C4C[C@@H](O)CC[C@]4(C)[C@H]3CC[C@]12C)C(F)(F)F [Example 22, (3S,8S,9S,10R,13R,14S,17R)-17-((2R,5S)-5-hydroxy-5-(trifluoromethyl)heptan-2-yl)-10,13-dimethyl-2,3,4,7,8,9,10,11,12,13,14,15,16,17-tetradecahydro-1H-cyclopenta(a)phenanthren-3-ol] here?
The IC50 was under 250 nM.

What about the “LXRβ PPI” value (LXRβ [2]) of the same compound?
The value was “B (250 nM-1000 nM)”.

And the IC50 (SREBP-2 [3])?
The IC50 was 250 to 1000 nM.

How did the EC50 (LXRβ [4]) turn out when CC[C@]1(O)CC[C@@]2(C)C(=CC[C@H]3[C@@H]4CC[C@H]([C@H](C)CCC(=O)N5CCN(C(=O)OC)CC5)[C@@]4(C)CC[C@@H]32)C1 [Example 420, Methyl 4-[(4R)-4-[(1R,3aS,3bS,7S,9aR,9bS,11aR)-7-ethyl-7-hydroxy-9a,11a-dimethyl-1H,2H,3H,3aH,3bH,4H,6H,7H,8H,9H,9aH,9bH,10H,11H,11aH-cyclopenta[a]phenanthren-1-yl]pentanoyl]piperazine-1-carboxylate] was run?
The EC50 was over 10000 nM.

And the IC50 (SREBP-2 [3])?
Its IC50 is under 250 nM.

How did the EC50 (LXRβ [4]) turn out when C[C@H](CCC(=O)N1CCC(F)(F)CC1)[C@H]1CC[C@H]2[C@@H]3CC=C4C[C@@H](O)CC[C@]4(C)[C@H]3CC[C@]12C [Example 79, (R)-1-(4,4-difluoropiperidin-1-yl)-4-((3S,8S,9S,10R,13R,14S,17R)-3-hydroxy-10,13-dimethyl-2,3,4,7,8,9,10,11,12,13,14,15,16,17-tetradecahydro-1H-cyclopenta[a]phenanthren-17-yl) pentan-1-one] was run?
The EC50 was 1000 to 10000 nM.

What about the IC50 (SREBP-2 [3]) of the same compound?
The IC50 was under 250 nM.
